Here are results for three compounds from paper PMC6497469 (Infection and Drug Resistance, 2019).

Test [1] has as its target T1, PA0847 (Pseudomonas aeruginosa, UniProt Q9I594).
T1 sequence (Q9I594 440-735 limits assumed): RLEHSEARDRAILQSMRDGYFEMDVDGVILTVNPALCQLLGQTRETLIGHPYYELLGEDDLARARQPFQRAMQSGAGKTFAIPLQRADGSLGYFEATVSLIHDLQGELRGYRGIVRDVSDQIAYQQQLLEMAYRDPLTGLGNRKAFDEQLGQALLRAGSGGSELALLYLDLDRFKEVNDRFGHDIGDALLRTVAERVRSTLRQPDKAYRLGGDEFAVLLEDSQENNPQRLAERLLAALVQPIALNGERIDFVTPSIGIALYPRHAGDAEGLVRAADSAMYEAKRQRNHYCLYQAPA
The test can be described thus: titration of GTPγS to purified PAS-GGDEF. The test is classed as binding.

Test [2] concerns the target T1, PA0847. The experiment in a line: binding of c-di-GMP to purified PAS-GGDEF.
Test [3] deals with PA0847 PAS-GGDEF dual domains (Pseudomonas aeruginosa PAO1). The test can be described thus: SEC.

In test [1], `Nc1nc2c(ncn2[C@@H]2O[C@H](COP(=O)(O)OP(=O)(O)OP(O)(O)=S)[C@@H](O)[C@H]2O)c(=O)[nH]1` [GTPγS] had a Kd of 15.3 ± 1.3 µM. `Nc1nc2c(ncn2[C@@H]2O[C@@H]3CO[P@](=O)(O)O[C@H]4[C@@H](O)[C@H](n5cnc6c(=O)[nH]c(N)nc65)O[C@@H]4CO[P@](=O)(O)O[C@H]3[C@H]2O)c(=O)[nH]1` [c-di-GMP]: in test [2], the Kd is ~59 µM. Regarding “PA0847 PAS-GGDEF dual domains (domain or fragment)”, the stoichiometry N in test [3] came to 2.
